Tests used:
Format in all cases: in vivo
[1] = system: Veronica persica; test: Test Example 4: herbicidal effect by soil treatment (symbol R); conditions: application herbicide amount 320 g/ha
Method in brief: (§1)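 Seeds were sown in sterilized diluvial soil, covered with about 1.5 cm of soil, and the soil surface was sprayed with a water-diluted emulsion of the compound at a predetermined rate. Plants grew in a greenhouse at 25° C. to 30° C.; effects were scored visually 3 weeks after application.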

[2] = system: transplanted rice plant; test: Test Example 1: effect on crop, application before weed generation in submerged conditions (symbol a); conditions: application herbicide amount 320 g/ha
Method in brief: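 Alluvial soil pots flooded to 4 cm water, sown with Echinochloa oryzacola, Scirpus juncoides and Monochoria vaginalis, then transplanted with 2.5 leaf stage rice seedlings; pre-emergence application. Greenhouse 25° C. to 30° C.; scored 0–5 by herbicidal ratio 3 weeks after application.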

[3] = system: Scirpus juncoides; test: Test Example 2: herbicidal activity, application during weed generation in submerged conditions (symbol B); conditions: Table 23; application herbicide amount 320 g/ha; grade 0-5 by criteria of Test Example 1
Method in brief: (§2)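 Alluvial soil in pots was flooded to a 4 cm water depth and sown with a mix of the three weed species, then grown in a greenhouse at 25° C. to 30° C. At the one- to two-leaf stage, an emulsifiable formulation diluted in water to a set dose was applied to the water surface. Effects were scored visually 3 weeks later.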

[4] = system: Chenopodium album; test: Test Example 4: herbicidal effect by soil treatment (symbol O); conditions: application herbicide amount 320 g/ha
Method in brief: as §1

[5] = system: Echinochloa oryzacola Vasing.; test: Test Example 1: herbicidal activity, application before weed generation in submerged conditions (symbol A); conditions: application herbicide amount 320 g/ha
Method in brief: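 Flooded alluvial soil (4 cm water) was mixed-sown with the three weed species, and 2.5-leaf rice seedlings were transplanted. On sowing day, a water-diluted emulsion at a predetermined rate was applied to the water surface. After 3 weeks in a 25–30 °C greenhouse, effect was scored 0–5.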

[6] = system: Amaranthus retroflexus; test: Test Example 5: herbicidal effect by foliage application, plastic box (symbol N); conditions: 320 g/ha, 3 weeks after application
Method in brief: (§3)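 Seeds were sown in sterilized diluvial soil, covered with about 1.5 cm of soil and grown 14 days in a greenhouse at 25° C. to 30° C. An emulsifiable formulation diluted in water to a set rate was sprayed over foliage, and injury was scored 3 weeks later.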

[7] = system: Echinochloa crus-galli var. crus-galli; test: Test Example 4: herbicidal effect by soil treatment (symbol H); conditions: application herbicide amount 320 g/ha
Method in brief: as §1

[8] = system: corn; test: Test Example 5: effect on crop by foliage application, plastic box (symbol c); conditions: 320 g/ha, 3 weeks after application
Method in brief: (§4)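 Seeds were sown in spots in sterilized diluvial soil held in a plastic box 21 cm × 13 cm × 7 cm deep, covered with about 1.5 cm of soil, and grown in a greenhouse at 25° C. to 30° C.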

[9] = system: soybean; test: Test Example 5: effect on crop by foliage application, plastic box (symbol d); conditions: 320 g/ha, 3 weeks after application
Method in brief: as §4

[10] = system: Abutilon theophrasti; test: Test Example 4: herbicidal effect by soil treatment (symbol M); conditions: application herbicide amount 320 g/ha
Method in brief: as §1

[11] = system: Cyperus difformis; test: Test Example 3: herbicidal effect by foliage application, Wagner pot (symbol E); conditions: application herbicide amount 320 g/ha
Method in brief: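 Weeds and rice were sown in alluvial soil under 0.1–0.5 cm of standing water and grown for 14 days in a 25–30 °C greenhouse. An emulsion of the compound, diluted in water to a set dose, was sprayed evenly onto the foliage. Effect was scored against fixed criteria 3 weeks after treatment.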

[12] = system: Monochoria vaginalis; test: Test Example 2: herbicidal activity, application during weed generation in submerged conditions (symbol C); conditions: Table 23; application herbicide amount 320 g/ha; grade 0-5 by criteria of Test Example 1
Method in brief: as §2

[13] = system: Setaria viridis; test: Test Example 5: herbicidal effect by foliage application, plastic box (symbol G); conditions: 320 g/ha, 3 weeks after application
Method in brief: as §3

Compound	R: Veronica persica, herbicidal effect grade [1]	Effect grade on crop, a: transplanted rice plant [2]	Herbicidal effect grade, B: Scirpus juncoides [3]	O: Chenopodium album, herbicidal effect grade [4]	Herbicidal effect grade, A: Echinochloa oryzacola Vasing. [5]	N: Amaranthus retroflexus, herbicidal effect (criteria of Test Example 1) [6]	H: Echinochloa crus-galli var. crus-galli, herbicidal effect grade [7]	c: corn, effect on crop (criteria of Test Example 1) [8]	d: soybean, effect on crop (criteria of Test Example 1) [9]	M: Abutilon theophrasti, herbicidal effect grade [10]	herbicidal effect on E, grade 0-5 [11]	Herbicidal effect grade, C: Monochoria vaginalis [12]	G: Setaria viridis, herbicidal effect (criteria of Test Example 1) [13]	Herbicidal effect grade, R: Veronica persica [1]	Herbicidal effect grade, O: Chenopodium album [4]	Herbicidal effect grade, H: Echinochloa crus-galli var. crus-galli [7]	Herbicidal effect grade, M: Abutilon theophrasti [10]
CON=C(C)CC1CC(O)=C(c2c(C)cc(Br)cc2OC)C1=O (centres unmarked) [6-076, 2-(4-bromo-2-methoxy-6-methylphenyl)-3-hydroxy-5-{2-(methoxyimino)propyl}cyclopent-2-enone]	0 (Herbicidal ratio of 5% or lower (almost no effect))	5 (Herbicidal ratio of 90% or more (almost completely withered))	1 (Herbicidal ratio of 5% or higher and lower than 20%)	0 (Herbicidal ratio of 5% or lower (almost no effect))	5 (Herbicidal ratio of 90% or more (almost completely withered))	1 (Herbicidal ratio of 5% or higher and lower than 20%)	5 (Herbicidal ratio of 90% or more (almost completely withered))	5 (Herbicidal ratio of 90% or more (almost completely withered))	1 (Herbicidal ratio of 5% or higher and lower than 20%)	5 (Herbicidal ratio of 90% or more (almost completely withered))	5 (Herbicidal ratio of 90% or more (almost completely withered))	1 (Herbicidal ratio of 5% or higher and lower than 20%)	5 (Herbicidal ratio of 90% or more (almost completely withered))	–	–	–	–
CON=C(C)CC1CC(OC(=O)N(C)C)=C(c2c(C)cc(-c3ccc(Cl)cc3)cc2C)C1=O (mixture of isomers) [6-063]	0 (Herbicidal ratio of 5% or lower (almost no effect))	4 (Herbicidal ratio of 70% or higher and lower than 90%)	3 (Herbicidal ratio of 40% or higher and lower than 70%)	0 (Herbicidal ratio of 5% or lower (almost no effect))	5 (Herbicidal ratio of 90% or more (almost completely withered))	0 (Herbicidal ratio of 5% or lower (almost no effect))	0 (Herbicidal ratio of 5% or lower (almost no effect))	5 (Herbicidal ratio of 90% or more (almost completely withered))	0 (Herbicidal ratio of 5% or lower (almost no effect))	0 (Herbicidal ratio of 5% or lower (almost no effect))	1 (Herbicidal ratio of 5% or higher and lower than 20%)	2 (Herbicidal ratio of 20% or higher and lower than 40%)	5 (Herbicidal ratio of 90% or more (almost completely withered))	–	–	–	–
CON=C(C)CC1CC(OC(=O)N2CCOCC2)=C(c2c(C)cc(-c3ccc(Cl)cc3F)cc2C)C1=O (centres unmarked) [6-089]	–	5 (Herbicidal ratio of 90% or more (almost completely withered))	2 (Herbicidal ratio of 20% or higher and lower than 40%)	–	5 (Herbicidal ratio of 90% or more (almost completely withered))	–	–	–	–	–	4 (Herbicidal ratio of 70% or higher and lower than 90%)	3 (Herbicidal ratio of 40% or higher and lower than 70%)	–	0 (Herbicidal ratio of 5% or lower (almost no effect))	0 (Herbicidal ratio of 5% or lower (almost no effect))	1 (Herbicidal ratio of 5% or higher and lower than 20%)	0 (Herbicidal ratio of 5% or lower (almost no effect))
CCc1cc(-c2ccc(Cl)cc2)cc(C)c1C1=C(OC(=O)N2CCOCC2)CC(CC(C)=NOC)C1=O (mixture of isomers) [6-064]	0 (Herbicidal ratio of 5% or lower (almost no effect))	5 (Herbicidal ratio of 90% or more (almost completely withered))	0 (Herbicidal ratio of 5% or lower (almost no effect))	0 (Herbicidal ratio of 5% or lower (almost no effect))	5 (Herbicidal ratio of 90% or more (almost completely withered))	–	5 (Herbicidal ratio of 90% or more (almost completely withered))	5 (Herbicidal ratio of 90% or more (almost completely withered))	0 (Herbicidal ratio of 5% or lower (almost no effect))	0 (Herbicidal ratio of 5% or lower (almost no effect))	0 (Herbicidal ratio of 5% or lower (almost no effect))	0 (Herbicidal ratio of 5% or lower (almost no effect))	5 (Herbicidal ratio of 90% or more (almost completely withered))	–	–	–	–
CON=C(C)CC1CC(OC(=O)COc2ccccc2)=C(c2c(C)cc(-c3ccc(Cl)cc3)cc2OC)C1=O (centres unmarked) [6-079]	3 (Herbicidal ratio of 40% or higher and lower than 70%)	5 (Herbicidal ratio of 90% or more (almost completely withered))	2 (Herbicidal ratio of 20% or higher and lower than 40%)	0 (Herbicidal ratio of 5% or lower (almost no effect))	4 (Herbicidal ratio of 70% or higher and lower than 90%)	0 (Herbicidal ratio of 5% or lower (almost no effect))	5 (Herbicidal ratio of 90% or more (almost completely withered))	5 (Herbicidal ratio of 90% or more (almost completely withered))	–	1 (Herbicidal ratio of 5% or higher and lower than 20%)	4 (Herbicidal ratio of 70% or higher and lower than 90%)	3 (Herbicidal ratio of 40% or higher and lower than 70%)	5 (Herbicidal ratio of 90% or more (almost completely withered))	–	–	–	–
